We go through two compounds from ChEMBL document CHEMBL5725952, “Imidazopyridine macrocycles as inhibitors of human immunodeficiency virus replication” (2018).

The nature of this test: Inhibition of HIV Replication: A recombinant NL-RLuc proviral clone was constructed in which a section of the nef gene from NL4-3 was replaced with the Renilla Luciferase gene. This virus is fully infectious and can undergo multiple cycles of replication in cell culture. In addition, the luciferous reporter provides a simple and easy method for quantitating the extent of virus growth and consequently, the antiviral activity of test compounds. The plasmid pNLRLuc contains the proviral NL-Rluc DNA cloned into pUC18 at the PvuII site. The NL-RLuc virus was prepared by transfection of 293T cells with the plasmid pNLRLuc. Transfections were performed using the LipofectAMINE PLUS kit from Invitrogen (Carlsbad, Calif.) according to the manufacturer and the virus generated was titered in MT-2 cells. For susceptibility analyses, the titrated virus was used to infect MT-2 cells in the presence of compound, and after 5 days of incubation, cells were processed and quantitated for virus growth by the amount of expressed luciferase. Assay media was RPMI 1640 supplemented with 10% heat inactivated fetal bovine serum (FBS), 100 units/ml penicillin G/100 units/ml streptomycin, 10 mM HEPES buffer pH 7.55 and 2 mM L-glutamine. The results from at least 2 experiments were used to calculate the EC50 values. Luciferase was quantitated using the Dual Luciferase kit from Promega (Madison, Wis.). […]. It counts as cell-based. The conditions noted are these: […].

The structures appear in SMILES notation.

For `Cc1c([C@H](OC(C)(C)C)C(=O)O)c2n3cc(nc3c1C)-c1cccc(c1)-c1cc(F)c(F)cc1O[C@@H](C)COCCOC1(C)CCN2CC1`, the EC50 was below 100 nM.

As to `Cc1c([C@@H](OC(C)(C)C)C(=O)O)c2n3cc(nc3c1C)-c1cccc(c1)-c1cc(F)c(F)cc1O[C@@H](C)COCCOC1(C)CCN2CC1`, the EC50 is 550 nM.
